Measurements: patent US20240285670A1, “THERAPEUTIC TREATMENT OF TUMORS BY BLOCKING THE HEME SYNTHESIS-EXPORT AXIS” (Università degli Studi di Torino, priority 2021, published 2024)

Tests used:
Format in all cases: cell-based, human
SKCO1 cells = SKCO1 cells viability (CellTiter-Fluor) as readout of proliferation; details: 5 mM ALA at day 0, no medium refresh
Procedure: (§1) (A) Heme content in SHSY5Y cells non-treated (NT) or treated with 5 mM ALA for 15 hours. Values are expressed as pmol heme/mg protein. Data represent mean±SEM, n=3; *=P<0.05. (B, C) qRT-PCR analysis of the expression of ALAS1 (B) and FLVCR1a (C) in SHSY5Y cells non-treated (NT) or treated with 5 mM ALA for 15 hours. Transcript abundance, normalized to beta-actin mRNA expression, is expressed as a fold increase over a calibrator sample. Data represent mean±SEM, n=4. For statistical analyses, an unpaired Student's t-test was used; *p<0.05. (D) qRT-PCR analysis of the expression of ALAS1 in SKCO1 cells untreated (NT) or treated with 5 mM ALA for 24 hours. Transcript abundance, normalized to beta-actin mRNA expression, is expressed as a fold increase over a calibrator sample. Data represent mean±SEM, n=5. […] Band intensities were measured by densitometry and normalized to beta-actin expression. […] (F) Proliferation of SHSY5Y cells assessed by crystal violet staining at different time points (starting from the day after plating, named “day 0”). Treatment with 5 mM ALA occurred at “day 0” and cells were monitored until the end of the experiment without medium refresh. […] (G) SKCO1 cells viability measured by the CellTiter-Fluor Cell Viability Assay (Promega, Madison, WI USA, catalog n°G6080) at different time points, starting from the day after plating (named “day 0”), as a readout of cell proliferation. […]

SHSY5Y cells = test: Flow cytometric analysis of apoptosis in SHSY5Y cells; details: 5 mM ALA for 72 hours
ALAS1 = test: Western blot analysis of ALAS1 expression in SKCO1 cells; details: 5 mM ALA for 16, 24 and 48 hours vs untreated
Procedure: as §1

C80 cells = test: Mitochondrial ATP levels in C80 cells; details: FLVCR1a-silenced vs scramble shRNA C80 cells
Description: (A, C, E) Activities of the mitochondrial electron transport chain complexes I-IV. FLVCR1a-silenced Caco2 (A), SKCO1 (C) or C80 cells (E) are compared to cells expressing a scramble shRNA. Results were expressed as nmol NAD^+/min/mg mitochondrial protein for complex I, nmol reduced cytochrome c/min/mg mitochondrial protein for complexes II-III, nmol oxidized cytochrome c/min/mg mitochondrial protein for complex IV. Data represent mean±SEM, n=3. For statistical analyses, an unpaired Student's t-test was used; *=p<0.05, **=p<0.01. (B, D, F) Mitochondrial ATP levels measured by a bioluminescent assay kit. FLVCR1a-silenced Caco2 (B), SKCO1 (D) or C80 cells (F) are compared to cells expressing a scramble shRNA. Results are expressed as nmol/mg mitochondrial proteins. […] Results were expressed as nmol NAD^+/min/mg mitochondrial protein for complex I, nmol reduced cytochrome c/min/mg mitochondrial protein for complexes II-III, nmol oxidized cytochrome c/min/mg mitochondrial protein for complex IV. […] (H) Mitochondrial ATP levels measured by a bioluminescent assay kit in Caco2 cells overexpressing FLVCR1a (indicated as FLVCR1a+) compared to cells stably transduced with an empty vector. Results are expressed as nmol/mg mitochondrial proteins. […]
ATP levels in mitochondria extracts were assessed by the ATP Bioluminescent Assay Kit (Sigma-Aldrich, St. Louis, MO USA, catalog n° FLAA). […]

| Compound | cell proliferation (cell viability) (SKCO1 cells) | apoptosis (SHSY5Y cells) | ALAS1 protein levels (ALAS1) | mitochondrial ATP levels (C80 cells) |
| --- | --- | --- | --- | --- |
| Cl.NCC(=O)CCC(=O)O [5-ALA, 5-Aminolevulinic acid hydrochloride] | Reduced proliferation | increased apoptosis | decreased |  |
| FLVCR1a shRNA: shRNA specifically down-regulating FLVCR1a without targeting FLVCR1b; pLKO.1 lentiviral clone TRCN0000059599, antisense SEQ ID No.: 2 (antisense TTGCTAATGATGCTGTACTGG; sense CCAGTACAGCATCATTAGCAA) |  |  |  | increased |
